Measurements published in patent US8741911B2, “Raf inhibitor compounds” (Eli Lilly and Company, priority 2012, dated 2014).

What was measured:
A375 = assay: CellTiter-Glo proliferation and viability assay; type: cell-based; settings: Homo sapiens, A-375, parental A375 B-Raf V600E cells, comparison with A375res
A375res cells = assay: CellTiter-Glo proliferation and viability assay in vemurafenib-resistant cells; type: cell-based, human

Q: What does the source list for `CCCS(=O)(=O)Nc1ccc(F)c(C(=O)c2c[nH]c3ncc(-c4ccc(Cl)cc4)cc23)c1F` [PLX4032, vemurafenib]?
A: IC50 (A375): 252 nM; shift of IC50, A375res versus A375 (A375res cells): ~30 fold; IC50 (A375res cells; Homo sapiens, A375res cells): > 7000 nM
